The source of these data is article PMC6429585, “Synthesis, Microtubule-Binding Affinity, and Antiproliferative Activity of New Epothilone Analogs and of an EGFR-Targeted Epothilone-Peptide Conjugate” (International Journal of Molecular Sciences, 2019).

Read-outs that look alike come from different tables or passages of the source.

In one test the test system is A431 cells. Description: cells. The note with it: Homo sapiens, read-out: IC50 A431. It counts as cell-based, human. The procedure:
(§1) Experiments were performed in RPMI (SW480 cells) or DMEM (HEK293 and A431 cells) medium (Gibco) supplemented with 2 mM glutamine, 10% fetal bovine serum, 100 IU/mL penicillin, 100 µg/mL streptomycin, and 1 µg/mL amphotericin B (all from Sigma) at 37 °C and 5% CO2. Cells were seeded into 96-well microtiter plates and compounds were added in DMSO in serial dilutions in triplicate. The final DMSO (dimethylsulfoxide) concentration was 0.1%. After 72 h, a WST-1 reagent was added and the absorption was measured at 450 nm with a plate reader after 30 min to 4 h. The percentage of viable cells was calculated based on vehicle-treated cells and was plotted in GraphPadPrism. At least three independent experiments were performed.
(§2) A431 cells were obtained from CLS. The other cell lines were available in the laboratory. WST-1 was purchased from Roche.

In another test the test system is HEK293 cells. Description: cells. It counts as cell-based, human. The settings on record: Homo sapiens, read-out: IC50 HEK293. The procedure: as §1, §2
The test system of another test is SW480 cells. Briefly: cells. The test is classed as cell-based, human. The note with it: Homo sapiens, read-out: IC50 SW480. The procedure:
as §1, §2

In a further test the test system is EGFR. The settings on record: read-out: IC50 for displacement of [^125I]-EGF from the EGFR; cited from earlier work.
In test [1] the test system is cross-linked stabilized microtubules. Details: method as in earlier work. The settings on record: cited from earlier work.
The target in test [2] is glutaraldehyde-stabilized microtubules (paclitaxel binding site). Briefly: Microtubule binding affinity by displacement of Flutax-2 (fluorescence anisotropy). Details: species or system calf. The procedure: The binding affinity of epothilone analogs 1, 14, and 16 and of targeted conjugate 4 for microtubules was determined as previously described by Díaz and co-workers, using partly cross-linked microtubules and determining the changes in fluorescence anisotropy upon displacement of the fluorescent taxol derivative Flutax-2 [42, 43] (Figure S3).
Purified calf-brain tubulin and chemicals were obtained as previously described. Stabilized, moderately crosslinked microtubules were prepared as reported in [42]. Binding constants of azathilones to stabilized microtubules were measured as previously described by Buey et al.. For details of the experimental procedures and Flutax-2 displacement curves cf. Section SI.3 of the Supplementary Materials.
SI.3. Disulfide cleavage asssay
Figure S2. […]
60 mg of frozen tubulin were thawed and loaded on a Sephadex G-25 column pre-equilibrated with cold 1 mM EGTA, 3.4 M glycerol, 10 mM sodium phosphate pH 6.8 buffer supplemented with 0.1 mM GTP. […] Fractions were collected and analyzed by spectrophotometry at 295 nm on a Thermo Evolution 300LC device. […] The tubulin concentration of the supernatant was determined by spectrophotometry at a 1:20 dilution of 10 mM sodium phosphate buffer containing 1%
SDS. The concentration was calculated with an extinction coefficient of 107’000 M-1cm-1 at 276 nm. […]
The concentration was measured spectrophotometrically as previously. […]
In general terms: In fluorescence polarisation assays a small probe gives low polarisation when free and higher when bound to something large.

The next test has as its target EGFR (Homo sapiens) (UniProt P00533). Briefly: SPR. The note with it: cited from earlier work.
Test [3] has as its target stabilized, moderately crosslinked microtubules (calf-brain tubulin) (calf (endogenous in calf brain)) (UniProt Q6B856). Description: fluorescence polarisation; displacement of the fluorescent taxol derivative Flutax-2 from glutaraldehyde-stabilized, partly cross-linked microtubules, read by change in fluorescence anisotropy; 35 °C; association constant Kb.

By IC50 is commonly meant the midpoint of a concentration-inhibition curve. By Kd is commonly meant the constant that tells how readily two partners part at equilibrium.

As for `Cc1nc2cc([C@@H]3C[C@@H]4C[C@H]4CCC[C@H](C)[C@H](O)[C@@H](C)C(=O)C(C)(C)CCC(=O)O3)ccc2n1CCO` [compound 1, (1S,3S,10R,11S,12S,16R)-11-Hydroxy-3-(1-(2-hydroxyethyl)-2-methyl-1H-benzo[d]imidazol-5-yl)-8,8,10,12-tetramethyl-4-oxabicyclo[14.1.0] heptadecane-5,9-dione], the 50% inhibitory concentration (IC50) was 0.00332 ± 0.0006 µM with A431 cells (A-431, 72 h); 0.00087 ± 0.00013 µM in the test on HEK293 cells (HEK293, 72 h); 0.0176 ± 0.0035 µM in the test with SW480 cells (SW480, 72 h).

On to “EGF: epidermal growth factor, natural EGFR ligand”, for which the half-inhibitory concentration (IC50) in the test with EGFR was 0.0051 µM.

As for Flutax-2, the “Flutax-2 Ka” value in test [1] (26 °C) is recorded as 6.5 107 M-1; in test [1] (27 °C), 5.9 107 M-1; in test [1] (30 °C) it was 4.6 107 M-1; in test [1] (32 °C) it was 4.2 107 M-1; in test [1] (35 °C) it was 3.0 107 M-1; in test [1] (37 °C), 2.2 107 M-1. In addition, the “Flutax-2 Ka” value in test [1] (40 °C) is on record as 2.0 107 M-1; in test [1] (42 °C), 1.8 107 M-1.

For the molecule `CC(=O)SCCn1c(C)nc2cc([C@@H]3C[C@@H]4C[C@H]4CCC[C@H](C)[C@H](O)[C@@H](C)C(=O)C(C)(C)CCC(=O)O3)ccc21` [compound 14, S-(2-(5-((1S,3S,10R,11S,12S,16R)-11-Hydroxy-8,8,10,12-tetramethyl-5,9-dioxo-4-oxabicyclo[14.1.0]heptadecan-3-yl)-2-methyl-1H-benzo[d]imidazol-1-yl)ethyl) ethanethioate], in test [2] (ratio of microtubule-binding affinity versus analog 1), the “Kb lower compared to 1” value is more than 10 fold.

As to GE11 peptide, the dissociation constant (Kd) with EGFR (Homo sapiens) was 459 µM.

In the case of `Cc1nc2cc([C@@H]3C[C@@H]4C[C@H]4CCC[C@H](C)[C@H](O)[C@@H](C)C(=O)C(C)(C)CCC(=O)O3)ccc2n1CCSSCCn1c(C)nc2cc([C@@H]3C[C@@H]4C[C@H]4CCC[C@H](C)[C@H](O)[C@@H](C)C(=O)C(C)(C)CCC(=O)O3)ccc21` [compound 16, Dimer of (1S,3S,10R,11S,12S,16R)-11-hydroxy-3-(1-(2-mercaptoethyl)-2-methyl-1H-benzo[d]imidazol-5-yl)-8,8,10,12-tetramethyl-4-oxabicyclo[14.1.0]heptadecane-5,9-dione], the IC50 amounted to 0.00837 ± 0.00081 µM in the test on A431 cells (A-431, 72 h incubation, mean of three experiments ± SD); 0.00208 ± 0.00053 µM in the test with HEK293 cells (HEK293, 72 h incubation, mean of three experiments ± SD); 0.00891 ± 0.00126 µM in the test on SW480 cells (SW480, 72 h incubation, mean of three experiments ± SD).

Take `C/C(=C\c1csc(C)n1)[C@@H]1C[C@@H]2O[C@@H]2CCC[C@H](C)[C@H](O)[C@@H](C)C(=O)C(C)(C)[C@@H](O)CC(=O)O1` [Epo A, Epothilone A]: the IC50 is 0.00294 ± 0.0003 µM with A431 cells (A-431, 72 h); 0.00271 ± 0.00062 µM with HEK293 cells (HEK293, 72 h); 0.0145 ± 0.00109 µM with SW480 cells (SW480, 72 h).

“GE11: 12-amino acid residue peptide of the sequence YHWYGYTPQNVI, reported to bind to EGFR [reference compound]”: in the test with EGFR, the IC50 is more than 1000 µM.

Turning to “CysCE11: GE11 peptide with a Cys residue added to the N-terminus; custom-made by Biosyntan (CYHWYGYTPQNVI) [reference compound]”, the “microtubule binding (in words)” value in test [2] was “no relevant microtubule binding”.

B1: epothilone-GE11 conjugate 4 (peptide)
peptide: CYHWYGYTPQNVI
modifications: side chain of the N-terminal Cys disulfide-linked to the thiol-containing epothilone analog 2; C-terminal amide (by the systematic name of 4)
For B1, the Ka in test [3] was 9.3e+06 M⁻¹.

In test [3], CYHWYGYTPQNVI [Cys-GE11 peptide] displayed a Ka of 50000 M⁻¹.
